Measured values as given in US9315490B2, “2,5-substituted pyrimidines” (Grünenthal GmbH, priority 2014, dated 2016).

Assays:
human PDE4B1 = target: T1, human PDE4B1 (Homo sapiens, UniProt Q07343); assay: cAMP HTRF assay to determine the activity of hPDE4B1; assay type: biochemical; conditions: inhibition of PDE4B at a test concentration of 1 μM
T1 construct: host or cells: Sf9 cells
Outline: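 Human recombinant PDE4B1 from Sf9 cells (4.8 U) in Tris-HCl, MgCl2, DTT, Tween 20 buffer at pH 7.8 with 40 nM cAMP (final), 30 min at room temperature. Reaction stopped with 1 mM IBMX; remaining cAMP detected by HTRF (665/620 nm ratio). IC50 from eight-concentration curves.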

T1 sequence (Q07343 whole entry): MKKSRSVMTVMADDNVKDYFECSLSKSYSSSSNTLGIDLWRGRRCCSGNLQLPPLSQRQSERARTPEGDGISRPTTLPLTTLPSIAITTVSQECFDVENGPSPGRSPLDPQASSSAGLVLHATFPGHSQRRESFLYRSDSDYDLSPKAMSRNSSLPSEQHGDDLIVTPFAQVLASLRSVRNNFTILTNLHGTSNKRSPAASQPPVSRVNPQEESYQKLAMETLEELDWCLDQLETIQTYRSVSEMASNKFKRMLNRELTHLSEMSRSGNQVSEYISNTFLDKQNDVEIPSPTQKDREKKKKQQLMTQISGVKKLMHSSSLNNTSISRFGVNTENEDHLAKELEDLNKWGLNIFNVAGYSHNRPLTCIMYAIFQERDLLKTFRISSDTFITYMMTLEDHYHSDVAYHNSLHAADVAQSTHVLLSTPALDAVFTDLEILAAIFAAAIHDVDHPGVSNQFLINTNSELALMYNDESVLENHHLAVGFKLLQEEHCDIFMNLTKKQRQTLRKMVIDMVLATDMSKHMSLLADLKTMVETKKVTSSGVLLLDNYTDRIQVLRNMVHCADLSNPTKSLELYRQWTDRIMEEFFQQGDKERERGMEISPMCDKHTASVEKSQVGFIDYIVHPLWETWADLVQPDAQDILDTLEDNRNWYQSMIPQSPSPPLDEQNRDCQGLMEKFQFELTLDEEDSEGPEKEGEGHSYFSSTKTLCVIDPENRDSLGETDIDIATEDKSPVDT

inhibition at 1 µM (human PDE4B1) | melting point | Structure (SMILES)
47% | 261 to 265 °C | C[S+]([O-])c1cn(-c2ncc(-c3cccnn3)cn2)c2cc(C(=O)N3CCOCC3)ccc12 (stereo not shown) [Example 144, (3-(Methylsulfinyl)-1-(5-(pyridazin-3-yl)pyrimidin-2-yl)-1H-indol-6-yl)(morpholino)methanone]
83% | 254 to 257 °C | C[S+]([O-])c1cn(-c2ncc(-c3cscn3)cn2)c2cc(C(=O)N3CCOCC3)ccc12 (stereo not shown) [Example 145, (3-(Methylsulfinyl)-1-(5-(thiazol-4-yl)pyrimidin-2-yl)-1H-indol-6-yl)(morpholino)methanone]
118% | 188 to 192 °C | C[S+]([O-])c1cn(-c2ncc(-c3cc(N)ccc3F)cn2)c2cc(C(=O)N3CCOCC3)ccc12 (stereo not shown) [Example 146, (1-(5-(5-Amino-2-fluorophenyl)pyrimidin-2-yl)-3-(methylsulfinyl)-1H-indol-6-yl)(morpholino)methanone]
67% | 272 to 276 °C | C[S+]([O-])c1cn(-c2ncc(-c3cc(O)ccn3)cn2)c2cc(C(=O)N3CCOCC3)ccc12 (stereo not shown) [Example 147, (1-(5-(4-Hydroxypyridin-2-yl)pyrimidin-2-yl)-3-(methylsulfinyl)-1H-indol-6-yl)(morpholino)methanone]
87% | 249 to 253 °C | C[S+]([O-])c1cn(-c2ncc(-c3cccc(O)c3)cn2)c2cc(C(=O)N3CCOCC3)ccc12 (stereo not shown) [Example 149, (1-(5-(3-Hydroxyphenyl)pyrimidin-2-yl)-3-(methylsulfinyl)-1H-indol-6-yl)(morpholino)methanone]
49% | 241 to 244 °C | C[S+]([O-])c1cn(-c2ncc(-c3ccncc3F)cn2)c2cc(C(=O)N3CCOCC3)ccc12 (stereo not shown) [Example 150, (1-(5-(3-Fluoropyridin-4-yl)pyrimidin-2-yl)-3-(methylsulfinyl)-1H-indol-6-yl)(morpholino)methanone]
91% | 283 to 287 °C | Cc1cccc(-c2cnc(-n3cc(S(C)(=O)=O)c4ccc(C(=O)N5CCNC(=O)C5)cc43)nc2)c1 [Example 151, 4-(3-(Methylsulfonyl)-1-(5-(m-tolyl)pyrimidin-2-yl)-1H-indole-6-carbonyl)piperazin-2-one]
90% | 293 to 295 °C | COc1ccc(F)c(-c2cnc(-n3cc(S(C)(=O)=O)c4ccc(C(=O)N5CCNC(=O)C5)cc43)nc2)c1 [Example 152, 4-(1-(5-(2-Fluoro-5-methoxyphenyl)pyrimidin-2-yl)-3-(methylsulfonyl)-1H-indole-6-carbonyl)piperazin-2-one]
76% | 270 to 273 °C | COc1cccc(-c2cnc(-n3cc(S(C)(=O)=O)c4ccc(C(=O)N5CCNC(=O)C5)cc43)nc2)c1 [Example 153, 4-(1-(5-(3-Methoxyphenyl)pyrimidin-2-yl)-3-(methylsulfonyl)-1H-indole-6-carbonyl)piperazin-2-one]
46% | 164 to 166 °C | CO[C@H]1CCN(C(=O)c2ccc3c([S+](C)[O-])cn(-c4ncc(-c5ccccc5F)cn4)c3c2)C1 (stereo partly drawn) [Example 172, (1-(5-(2-Fluorophenyl)pyrimidin-2-yl)-3-(methylsulfinyl)-1H-indol-6-yl)((S)-3-methoxypyrrolidin-1-yl)methanone]
86% | 116 to 119 °C | CC(C)(O)c1cn(-c2ncc(-c3ccccc3F)cn2)c2cc(C(=O)N3CCOCC3)ccc12 [Example 184, (1-(5-(2-Fluorophenyl)pyrimidin-2-yl)-3-(2-hydroxypropan-2-yl)-1H-indol-6-yl)(morpholino)methanone]
74% | 230 to 232 °C | Cc1cc(-c2cnc(-n3cc([S+](C)[O-])c4ccc(C(=O)N5CCOCC5)cc43)nc2)ccn1 (stereo not shown) [Example 186, (1-(5-(2-Methylpyridin-4-yl)pyrimidin-2-yl)-3-(methylsulfinyl)-1H-indol-6-yl)(morpholino)methanone]
56% | 285 to 288 °C | C[S+]([O-])c1cn(-c2ncc(-c3ccnc(F)c3)cn2)c2cc(C(=O)N3CCOCC3)ccc12 (stereo not shown) [Example 187, (1-(5-(2-Fluoropyridin-4-yl)pyrimidin-2-yl)-3-(methylsulfinyl)-1H-indol-6-yl)(morpholino)methanone]
104% | 193 to 196 °C | C[S+]([O-])c1cn(-c2ncc(-c3cccc(CO)c3)cn2)c2cc(C(=O)N3CCOCC3)ccc12 (stereo not shown) [Example 188, (1-(5-(3-(Hydroxymethyl)phenyl)pyrimidin-2-yl)-3-(methylsulfinyl)-1H-indol-6-yl)(morpholino)methanone]
109% | 162 to 165 °C | CCc1cccc(-c2cnc(-n3cc([S+](C)[O-])c4ccc(C(=O)N5CCOCC5)cc43)nc2)c1 (stereo not shown) [Example 189, (1-(5-(3-Ethylphenyl)pyrimidin-2-yl)-3-(methylsulfinyl)-1H-indol-6-yl)(morpholino)methanone]
90% | 256 to 258 °C | COC(=O)c1ccc(-c2cnc(-n3cc([S+](C)[O-])c4ccc(C(=O)N5CCOCC5)cc43)nc2)cc1 (stereo not shown) [Example 190, Methyl 4-(2-(3-(methylsulfinyl)-6-(morpholine-4-carbonyl)-1H-indol-1-yl)pyrimidin-5-yl)benzoate]
85% | 219 to 223 °C | C[S+]([O-])c1cn(-c2ncc(-c3ccc(C(=O)O)cc3)cn2)c2cc(C(=O)N3CCOCC3)ccc12 (stereo not shown) [Example 191, 4-(2-(3-(Methylsulfinyl)-6-(morpholine-4-carbonyl)-1H-indol-1-yl)pyrimidin-5-yl)benzoic acid]
112% | 217 to 220 °C | COC(=O)c1cccc(-c2cnc(-n3cc([S+](C)[O-])c4ccc(C(=O)N5CCOCC5)cc43)nc2)c1 (stereo not shown) [Example 192, Methyl 3-(2-(3-(methylsulfinyl)-6-(morpholine-4-carbonyl)-1H-indol-1-yl)pyrimidin-5-yl)benzoate]
91% | 230 to 235 °C | C[S+]([O-])c1cn(-c2ncc(-c3cccc(C(=O)O)c3)cn2)c2cc(C(=O)N3CCOCC3)ccc12 (stereo not shown) [Example 193, 3-(2-(3-(Methylsulfinyl)-6-(morpholine-4-carbonyl)-1H-indol-1-yl)pyrimidin-5-yl)benzoic acid]
92% | 211 to 213 °C | C[S+]([O-])c1cn(-c2ncc(-c3cccc(Cl)c3)cn2)c2cc(C(=O)N3CCOCC3)ccc12 (stereo not shown) [Example 194, (1-(5-(3-Chlorophenyl)pyrimidin-2-yl)-3-(methylsulfinyl)-1H-indol-6-yl)(morpholino)methanone]
114% | 120 to 123 °C | Cc1ccc(F)c(-c2cnc(-n3cc([S+](C)[O-])c4ccc(C(=O)N5CCOCC5)cc43)nc2)c1 (stereo not shown) [Example 198]
99% | 288 to 290 °C | C[S+]([O-])c1cn(-c2ncc(-c3ccc(C(N)=O)cn3)cn2)c2cc(C(=O)N3CCOCC3)ccc12 (stereo not shown) [Example 199, 6-(2-(3-(Methylsulfinyl)-6-(morpholine-4-carbonyl)-1H-indol-1-yl)pyrimidin-5-yl)nicotinamide]
87% | 244 to 248 °C | C[S+]([O-])c1cn(-c2ncc(-c3ccc(F)cn3)cn2)c2cc(C(=O)N3CCOCC3)ccc12 (stereo not shown) [Example 200, (1-(5-(5-Fluoropyridin-2-yl)pyrimidin-2-yl)-3-(methylsulfinyl)-1H-indol-6-yl)(morpholino)methanone]
81% | 222 to 225 °C | C[S+]([O-])c1cn(-c2ncc(-c3ncccc3F)cn2)c2cc(C(=O)N3CCOCC3)ccc12 (stereo not shown) [Example 201, (1-(5-(3-Fluoropyridin-2-yl)pyrimidin-2-yl)-3-(methylsulfinyl)-1H-indol-6-yl)(morpholino)methanone]
94% | 303 to 306 °C | C[S+]([O-])c1cn(-c2ncc(-c3cc(C(N)=O)ccn3)cn2)c2cc(C(=O)N3CCOCC3)ccc12 (stereo not shown) [Example 202, 2-(2-(3-(Methylsulfinyl)-6-(morpholine-4-carbonyl)-1H-indol-1-yl)pyrimidin-5-yl)isonicotinamide]
101% | 293 to 297 °C | C[S+]([O-])c1cn(-c2ncc(-c3cc(N)ccn3)cn2)c2cc(C(=O)N3CCOCC3)ccc12 (stereo not shown) [Example 209, 2-(1-(5-(4-Aminopyridin-2-yl)pyrimidin-2-yl)-3-(methylsulfinyl)-1H-indol-6-yl)(morpholino)methanone]
96% | 213 to 217 °C | CN(C)c1ccnc(-c2cnc(-n3cc([S+](C)[O-])c4ccc(C(=O)N5CCOCC5)cc43)nc2)c1 (stereo not shown) [Example 210, (1-(5-(4-(Dimethylamino)pyridin-2-yl)pyrimidin-2-yl)-3-(methylsulfinyl)-1H-indol-6-yl)(morpholino)methanone]
85% | 235 to 237 °C | C[S+]([O-])c1cn(-c2ncc(-c3nccs3)cn2)c2cc(C(=O)N3CCOCC3)ccc12 (stereo not shown) [Example 211, (3-(Methylsulfinyl)-1-(5-(thiazol-2-yl)pyrimidin-2-yl)-1H-indol-6-yl)(morpholino)methanone]
33% | 278 to 282 °C | C[S+]([O-])c1cn(-c2ncc(-c3ccnnc3)cn2)c2cc(C(=O)N3CCOCC3)ccc12 (stereo not shown) [Example 212, (3-(Methylsulfinyl)-1-(5-(pyridazin-4-yl)pyrimidin-2-yl)-1H-indol-6-yl)(morpholino)methanone]
